Assay results taken from ChEMBL document CHEMBL5712891, “Inhibition of BET bromodomain-dependent XIAP and FLIP expression sensitizes KRAS-mutated NSCLC to pro-apoptotic agents” (Cell Death Dis, 2016).
The source made the active and inactive calls. No cut-off for these calls is given here.

Columns and labels:
[1] = test system: DV-90; test: Induction of cell cycle arrest in human DV-90 cells assessed as accumulation of cells at S phase at 0.1 uM for 24 hrs by Click-iT EdU Alexa Fluor 647 flow cytometric assay kit analysis (reference value: 30%); format: functional
[2] = test system: A549; test: Induction of apoptosis in human A549 cells assessed as early apoptotic cells at 0.5 uM for 24 hrs by annexin V-PI staining based flow cytometric analysis (reference value: 0.4%); format: functional
[3] = test system: SK-LU-1; test: Downregulation of c-MYC mRNA expression level in human SK-LU-1 cells at 0.1 to 1 uM for 24 hrs by qRT-PCR analysis; format: functional, cell-based; settings: dose 0.1-1 µM
[4] = test system: A549; test: Induction of cell cycle arrest in human A549 cells assessed as accumulation of cells at G0/G1 phase at 0.25 uM for 24 hrs by Click-iT EdU Alexa Fluor 647 flow cytometric assay kit analysis (reference value: 61%); format: functional
[5] = test system: DV-90; test: Induction of cell cycle arrest in human DV-90 cells assessed as accumulation of cells at G2/M phase at 0.1 uM for 24 hrs by Click-iT EdU Alexa Fluor 647 flow cytometric assay kit analysis (reference value: 24%); format: functional
[6] = test system: DV-90; test: Induction of apoptosis in human DV-90 cells assessed as viable cells at 2.5 uM for 24 hrs by annexin V-PI staining based flow cytometric analysis (reference value: 81.5%); format: functional; settings: read-out: Activity
[7] = test system: NCI-H1373; test: Induction of cell cycle arrest in human NCI-H1373 cells assessed as accumulation of cells at G0/G1 phase at 1 uM for 24 hrs by Click-iT EdU Alexa Fluor 647 flow cytometric assay kit analysis (reference value: 40%); format: functional
[8] = test system: NCI-H2347; test: Downregulation of XIAP mRNA expression level in human NCI-H2347 cells at 0.1 to 1 uM for 24 hrs by qRT-PCR analysis; format: functional, cell-based; settings: dose 0.1-1 µM
[9] = test system: A549; test: Induction of apoptosis in human A549 cells assessed as viable cells at 1 uM in presence of cisplatin by annexin V-PI based flow cytometric analysis (reference value: 95.7%); format: functional; settings: read-out: Activity
[10] = test system: A549; test: Induction of cell cycle arrest in human A549 cells assessed as accumulation of cells at G2/M phase at 0.5 uM for 24 hrs by Click-iT EdU Alexa Fluor 647 flow cytometric assay kit analysis (reference value: 3%); format: functional
[11] = test system: A549; test: Antiproliferative activity against human A549 cells at 500 to 2500 nM in presence of TNF by cell titre glo assay; format: functional, cell-based; settings: dose 500-2500 nM
[12] = test system: NCI-H460; test: Downregulation of FLIP mRNA expression level in human NCI-H460 cells at 0.1 to 1 uM for 24 hrs by qRT-PCR analysis; format: functional, cell-based; settings: dose 0.1-1 µM
[13] = test system: NCI-H358; test: Antiproliferative activity against human NCI-H358 cells at 500 to 2500 nM in presence of TNF by cell titre glo assay; format: functional, cell-based; settings: dose 500-2500 nM
[14] = test system: A549; test: Induction of apoptosis in human A549 cells assessed as necrotic cells at 1 uM in presence of cisplatin by annexin V-PI based flow cytometric analysis (reference value: 1.6%); format: functional
[15] = test system: NCI-H1373; test: Induction of TRAIL dependent apoptosis in human NCI-H1373 cells assessed as necrotic cells at 1 uM in presence of […] by annexin V-PI staining based flow cytometric analysis (reference value: 3.6%); format: functional
[16] = Toxicity in SCID mouse xenografted with human A549 cells assessed as body weight loss administered at 80 mg/kg, ip for 28 days relative to control; format: organism-based; settings: in vivo, 672 h, time 28 day
[17] = test system: DV-90; test: Downregulation of c-MYC protein expression level in human DV-90 cells at 1 uM for 24 hrs by […] analysis; format: functional, cell-based
[18] = test system: LCLC-97TM1; test: Downregulation of c-MYC protein expression level in human LCLC-97TM1 cells at 1 uM for 24 hrs by […] analysis; format: functional, cell-based
[19] = test system: A549; test: Induction of apoptosis in human A549 cells assessed as viable cells at 0.5 uM for 24 hrs by annexin V-PI staining based flow cytometric analysis (reference value: 96%); format: functional; settings: read-out: Activity
[20] = test system: NCI-H358; test: Downregulation of c-MYC protein expression level in human NCI-H358 cells at 1 uM for 24 hrs by […] analysis; format: functional, cell-based
[21] = test system: DV-90; test: Induction of apoptosis in human DV-90 cells assessed as viable cells at 0.5 uM for 24 hrs by annexin V-PI staining based flow cytometric analysis (reference value: 81.5%); format: functional; settings: read-out: Activity
[22] = test system: NCI-H1373; test: Induction of apoptosis in human NCI-H1373 cells assessed as viable cells at 2.5 uM for 24 hrs by annexin V-PI staining based flow cytometric analysis (reference value: 77.7%); format: functional; settings: read-out: Activity
[23] = test system: NCI-H23; test: Downregulation of c-MYC protein expression level in human NCI-H23 cells at 1 uM for 24 hrs by […] analysis; format: functional, cell-based
[24] = test system: DV-90; test: Induction of cell cycle arrest in human DV-90 cells assessed as accumulation of cells at G2/M phase at 0.5 uM for 24 hrs by Click-iT EdU Alexa Fluor 647 flow cytometric assay kit analysis (reference value: 24%); format: functional
[25] = test system: NCI-H2030; test: Downregulation of XIAP mRNA expression level in human NCI-H2030 cells at 0.1 to 1 uM for 24 hrs by qRT-PCR analysis; format: functional, cell-based; settings: dose 0.1-1 µM
[26] = test system: NCI-H460; test: Induction of apoptosis in human NCI-H460 cells assessed as necrotic cells at 0.5 uM for 24 hrs by annexin V-PI staining based flow cytometric analysis (reference value: 2.7%); format: functional
[27] = test system: DV-90; test: Induction of cell cycle arrest in human DV-90 cells assessed as accumulation of cells at G0/G1 phase at 0.25 uM for 24 hrs by Click-iT EdU Alexa Fluor 647 flow cytometric assay kit analysis (reference value: 44%); format: functional
[28] = test system: NCI-H460; test: Induction of apoptosis in human NCI-H460 cells assessed as viable cells at 0.5 uM for 24 hrs by annexin V-PI staining based flow cytometric analysis (reference value: 92.8%); format: functional; settings: read-out: Activity
[29] = test system: NCI-H460; test: Induction of apoptosis in human NCI-H460 cells assessed as late apoptotic cells at 0.5 uM for 24 hrs by annexin V-PI staining based flow cytometric analysis (reference value: 3.7%); format: functional
[30] = test system: NCI-H460; test: Induction of apoptosis in human NCI-H460 cells assessed as necrotic cells at 0.5 uM for 24 hrs by annexin V-PI staining based flow cytometric analysis (reference value: 3.2%); format: functional
[31] = test system: NCI-H1373; test: Induction of apoptosis in human NCI-H1373 cells assessed as early apoptotic cells at 0.5 uM for 24 hrs by annexin V-PI staining based flow cytometric analysis (reference value: 1.7%); format: functional
[32] = test system: A549; test: Induction of apoptosis in human A549 cells assessed as late apoptotic cells at 0.5 uM for 24 hrs by annexin V-PI staining based flow cytometric analysis (reference value: 1.2%); format: functional
[33] = test system: DV-90; test: Induction of cell cycle arrest in human DV-90 cells assessed as accumulation of cells at G0/G1 phase at 0.5 uM for 24 hrs by Click-iT EdU Alexa Fluor 647 flow cytometric assay kit analysis (reference value: 47%); format: functional

SMILES: CCNC(=O)C[C@@H]1N=C(c2ccc(Cl)cc2)c2cc(OC)ccc2-n2c(C)nnc21 [MOLIBRESIB]
- Activity [1]: 27%

SMILES: Cc1sc2c(c1C)C(c1ccc(Cl)cc1)=N[C@@H](CC(=O)OC(C)(C)C)c1nnc(C)n1-2
- Activity [2]: 0.1%
- Activity [3]: Active
- Activity [4]: 63%
- Activity [5]: 31%
- viability at 2.5 µM [6]: 50.7%
- Activity [7]: 68%
- Activity [8]: Active
- viability at 1 µM [9]: 58.9%
- Activity [10]: 3%
- Activity [11]: Active
- Activity [12]: Active
- Activity [13]: Active
- Activity [14]: 10.3%
- Activity [15]: 40.2%
- Activity [16]: 7%
- Activity [17]: Active
- Activity [18]: Active
- viability at 0.5 µM [19]: 97.2%
- Activity [20]: Active
- viability at 0.5 µM [21]: 61.3%
- viability at 2.5 µM [22]: 58%
- Activity [23]: Active
- Activity [24]: 30%
- Activity [25]: Active
- Activity [26]: 4%
- Activity [27]: 45%

SMILES: Cc1sc2c(c1C)C(c1ccc(Cl)cc1)=N[C@@H](CC(=O)Nc1ccc(O)cc1)c1nnc(C)n1-2 [BIRABRESIB]
- viability at 0.5 µM [28]: 90.6%
- Activity [29]: 4.6%
- Activity [30]: 4.7%
- Activity [31]: 2.6%
- Activity [32]: 1.1%
- Activity [33]: 56%
